From article PMC9391200, “Charge-based interactions through peptide position 4 drive diversity of antigen presentation by human leukocyte antigen class I molecules” (PNAS Nexus, 2022)

Key:
HLA-A*24:02 [1] = target: T1, HLA-A*24:02 (Homo sapiens, UniProt P04439, D101N/D140Y/D185E/E176V/E190D/F33S/G103R/G107R/I119L/I121M/I306V/K335N/L105A/L180Q/L300P/N151K/N90K/Q86E/Q94H/R106L/R138H/R89G/T104I/T345S/V100E/W191G/Y123F); test: Peptide stability assay on WT HLA-A*24:02 (urea denaturation, W6/32 ELISA); type: binding; conditions: biotinylated A*24:02 refolded with excess peptide, incubated with 0, 2, 4 or 6 M urea, relative to reference peptide TYTQDFNKF (stability index 100%), result in words
Description: (§1) All HLA-A*02:01- and A*24:02-restricted peptides used in the study were purchased from Genscript at purity of > 80% with quality control by reverse-phase HPLC and mass spectrometry (SC1208). Recombinant HLA-A*02:01 and HLA-A*24:02 molecules were made and re-folded as described elsewhere ([83]). Conformation-dependent W6/32 antibodies used in these assays were produced in vitro from hybridoma cell lines (Integra, Chur, Switzerland). All A*02:01 and A*24:02 binding assays were done as described previously ([83]). In brief, streptavidin donor beads (PerkinElmer, 6760002) and acceptor beads (PerkinElmer, 6762001) conjugated to W6/32 were incubated with A*02:01 or A*24:02 that had been preincubated with varying peptide concentrations. Plates were read by PerkinElmer EnVision and data was analyzed using GraphPad Prism. Peptide stability assays were performed as described previously ([84]). In brief, biotinylated A*02:01 and A*24:02 molecules were refolded with excess peptide then incubated with 0, 2, 4, or 6 M urea. Nondenatured peptides were detected by W6/32 staining using ELISA as described previously ([85]). Stability was calculated as a percentage relative to a reference known binder peptide with an assigned stability index of 100%. […] was used as the reference peptide for A*02:01 and TYTQDFNKF was used as the reference peptide for A*24:02 in both the binding and stability assays.

HLA-A*24:02 [2] = target: T1, HLA-A*24:02; test: Peptide binding assay on WT HLA-A*24:02 (W6/32 donor/acceptor bead assay); conditions: recombinant HLA-A*24:02 preincubated with varying peptide concentrations; streptavidin donor beads and W6/32-conjugated acceptor beads; EnVision read-out; reference peptide TYTQDFNKF; result in words
Description: as §1

Sequence	HLA-A*24:02/peptide complex stability (HLA-A*24:02 [1])	peptide binding to WT A*24:02 (HLA-A*24:02 [2])
KFKDNVILL [p1 lysine-substituted …]	increased	
VYGFVRACL		strong-binding
QFKDNVILL [native A*24:02-restricted peptide with subdominant anchors F2 and LΩ]		relatively poor binding
TFSDEAVHF		weak-binding
